Legend:
barnyardgrass [1] = test: Test A pre-/postemergence herbicide test; assay type: in vivo, Echinochloa crus-galli
Outline: (§1)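 Seeds sown in sandy loam received a preemergence directed soil spray of compound in non-phytotoxic solvent with surfactant; postemergence plants (2–10 cm, one- to two-leaf stage) were sprayed to runoff at the same time. After ~10 days in greenhouse, injury was rated visually versus untreated controls (0 = no effect, 100 = complete control).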

large crabgrass [2] = test: Test A pre-/postemergence herbicide test; assay type: in vivo, Digitaria sanguinalis
Outline: as §1

giant foxtail [3] = test: Test A pre-/postemergence herbicide test; assay type: in vivo, Setaria faberi
Outline: as §1

morningglory [4] = test: Test A pre-/postemergence herbicide test; assay type: in vivo, Ipomoea spp.
Outline: as §1

redroot pigweed = test: Test A pre-/postemergence herbicide test; assay type: in vivo, Amaranthus retroflexus
Outline: as §1

velvetleaf [5] = test: Test A pre-/postemergence herbicide test; assay type: in vivo, Abutilon theophrasti
Outline: as §1

barnyardgrass [6] = test: Test B pre-/postemergence herbicide test; assay type: in vivo, Echinochloa crus-galli; settings: for Barnyardgrass plant response rating: postemergence
Outline: (§2)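 Greenhouse pot assay with simultaneous preemergence (treated seed) and postemergence (2–18 cm seedlings) applications of surfactant-containing, non-phytotoxic solvent formulations. Response scored visually 13–15 days later on a 0–100 scale, 100 meaning complete control.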

Surinam grass = test: Test B pre-/postemergence herbicide test; assay type: in vivo, Urochloa decumbens; settings: for Surinam Grass plant response rating: postemergence
Outline: (§3)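 Pre: seeds sown, then sprayed. Post: 1–4-leaf plants (2–18 cm) sprayed at the same time. Paddy: flooded, treated at 2-leaf stage. Formulation: non-phytotoxic solvent with surfactant. Greenhouse 13–15 days; visual 0–100 score relative to controls.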

cocklebur = test: Test B pre-/postemergence herbicide test; assay type: in vivo, Xanthium strumarium; settings: for Cocklebur plant response rating: postemergence
Outline: as §2

corn = test: Test B pre-/postemergence herbicide test; assay type: in vivo, Zea mays; settings: for Corn plant response rating: postemergence
Outline: as §3

large crabgrass [7] = test: Test B pre-/postemergence herbicide test; assay type: in vivo, Digitaria sanguinalis; settings: for Crabgrass, Large plant response rating: postemergence
Outline: as §3

giant foxtail [8] = test: Test B pre-/postemergence herbicide test; assay type: in vivo, Setaria faberi; settings: for Foxtail, Giant plant response rating: postemergence
Outline: as §3

lambsquarters = test: Test B pre-/postemergence herbicide test; assay type: in vivo, Chenopodium album; settings: for Lambsquarters plant response rating: postemergence
Outline: as §3

morningglory [9] = test: Test B pre-/postemergence herbicide test; assay type: in vivo, Ipomoea coccinea; settings: for Morningglory plant response rating: postemergence
Outline: as §2

pigweed = test: Test B pre-/postemergence herbicide test; assay type: in vivo, Amaranthus retroflexus; settings: for Pigweed plant response rating: postemergence
Outline: as §3

rice [10] = test: Test B pre-/postemergence herbicide test; assay type: in vivo, Oryza sativa; settings: preemergence
Outline: as §3

velvetleaf [11] = test: Test B pre-/postemergence herbicide test; assay type: in vivo, Abutilon theophrasti; settings: for Velvetleaf plant response rating: postemergence
Outline: as §3

blackgrass = test: Test B postemergence herbicide test; assay type: in vivo, Alopecurus myosuroides; settings: postemergence
Outline: (§4)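 Greenhouse test; postemergence application to plants at 1–4 leaves (2–18 cm); paddy species at 2 leaves; evaluated visually vs controls at 13–15 days; scale 0–100 (100 = complete control).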

wheat = test: Test B postemergence herbicide test; assay type: in vivo, Triticum aestivum; design: key to Wheat plant response rating: 0 = no effect, 100 = complete control; settings: postemergence
Outline: (§5)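 Scale 0–100: zero equals no visible effect, 100 complete control, judged by eye relative to controls. Timing: 13 to 15 days in greenhouse post-treatment. Growth stage at spraying: two leaves (paddy) or one to four leaves, 2–18 cm (postemergence).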

wild oat = test: Test B postemergence herbicide test; assay type: in vivo, Avena fatua; settings: postemergence
Outline: as §5

rice [12] = test: Test B flooded paddy test; assay type: in vivo, Oryza sativa; settings: 1000 g ai/ha, scale 0 to 100 (0 no effect, 100 complete control)
Outline: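 Plants grow to 1- to 4-leaf stage (2–18 cm) for postemergence spraying, or to 2-leaf stage for the paddy test. Formulated compound is applied. Greenhouse holding lasts 13–15 days. Response is scored visually relative to controls, 0 no effect to 100 complete control; a dash means no result.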

[13] = system: small flower umbrella sedge; test: Test B flooded paddy test; assay type: in vivo, Cyperus difformis; settings: 1000 g ai/ha, scale 0 to 100 (0 no effect, 100 complete control)
Outline: as §4

ducksalad = test: Test B flooded paddy test; assay type: in vivo, Heteranthera limosa; settings: 1000 g ai/ha, scale 0 to 100 (0 no effect, 100 complete control)
Outline: as §4

barnyardgrass [14] = test: Test B flooded paddy test; assay type: in vivo, Echinochloa crus-galli; settings: 1000 g ai/ha, scale 0 to 100 (0 no effect, 100 complete control)
Outline: as §4

[15] = Postemergence, 500 g ai/ha, 0 to 100 scale, 0 no effect, 100 complete control
[16] = Postemergence, 2000 g ai/ha, 0 to 100 scale, 0 no effect, 100 complete control
[17] = Preemergence, 2000 g ai/ha, visual rating, 0 to 100 scale (0 no effect, 100 complete control)
[18] = preemergence, 500 g ai/ha, visual injury, 0 to 100 scale (0 no effect, 100 complete control)
[19] = 125 g ai/ha, 0 is no effect, 100 is complete control, preemergence
[20] = 125 g ai/ha, visual rating, scale 0 (no effect) to 100 (complete control)
[21] = 500 g ai/ha, visual rating, 0 = no effect, 100 = complete control, preemergence
[22] = 500 g ai/ha, scale 0 to 100, 0 is no effect, 100 is complete control

CCSCNC(=O)c1cccc(NC(=O)c2cc(C(C)(C)C)nn2CC)c1 [Compound 329]
Barnyardgrass plant response rating (barnyardgrass [1]; [15]): 15
Plant response rating, Barnyardgrass (barnyardgrass [1]; [16]): 20
Barnyardgrass plant response rating (barnyardgrass [1]; [17]): 5
Barnyardgrass plant response rating (barnyardgrass [1]; [18]): 0
Crabgrass, Large plant response rating (large crabgrass [2]; [15]): 10
Plant response rating, Crabgrass, Large (large crabgrass [2]; [16]): 5
Crabgrass, Large plant response rating (large crabgrass [2]; [17]): 0
Crabgrass, Large plant response rating (large crabgrass [2]; [18]): 0
Foxtail, Giant plant response rating (giant foxtail [3]; [15]): 10
Plant response rating, Foxtail, Giant (giant foxtail [3]; [16]): 20
Foxtail, Giant plant response rating (giant foxtail [3]; [17]): 5
Foxtail, Giant plant response rating (giant foxtail [3]; [18]): 0
Morningglory plant response rating (morningglory [4]; [15]): 10
Plant response rating, Morningglory (morningglory [4]; [16]): 20
Morningglory plant response rating (morningglory [4]; [17]): 10
Morningglory plant response rating (morningglory [4]; [18]): 0
Pigweed plant response rating (redroot pigweed; [15]): 10
Plant response rating, Pigweed (redroot pigweed; [16]): 45
Pigweed plant response rating (redroot pigweed; [17]): 10
Pigweed plant response rating (redroot pigweed; [18]): 5
Velvetleaf plant response rating (velvetleaf [5]; [15]): 10
Plant response rating, Velvetleaf (velvetleaf [5]; [16]): 25
Velvetleaf plant response rating (velvetleaf [5]; [17]): 10
Velvetleaf plant response rating (velvetleaf [5]; [18]): 0
Plant response rating (0 to 100 scale), Barnyardgrass (barnyardgrass [6]; [19]): 0
Barnyardgrass plant response rating (barnyardgrass [6]; [20]): 0
Plant response rating, Barnyardgrass (barnyardgrass [6]; [21]): 0
Barnyardgrass plant response rating (barnyardgrass [6]; [22]): 10
Plant response rating (0 to 100 scale), Surinam Grass (Surinam grass; [19]): 0
Surinam Grass plant response rating (Surinam grass; [20]): 10
Plant response rating, Surinam Grass (Surinam grass; [21]): 0
Surinam Grass plant response rating (Surinam grass; [22]): 20
Plant response rating (0 to 100 scale), Cocklebur (cocklebur; [19]): 0
Cocklebur plant response rating (cocklebur; [20]): 0
Plant response rating, Cocklebur (cocklebur; [21]): 0
Cocklebur plant response rating (cocklebur; [22]): 30
Plant response rating (0 to 100 scale), Corn (corn; [19]): 0
Corn plant response rating (corn; [20]): 0
Plant response rating, Corn (corn; [21]): 0
Corn plant response rating (corn; [22]): 20
Plant response rating (0 to 100 scale), Crabgrass, Large (large crabgrass [7]; [19]): 0
Crabgrass, Large plant response rating (large crabgrass [7]; [20]): 0
Plant response rating, Crabgrass, Large (large crabgrass [7]; [21]): 0
Crabgrass, Large plant response rating (large crabgrass [7]; [22]): 10
Plant response rating (0 to 100 scale), Foxtail, Giant (giant foxtail [8]; [19]): 0
Foxtail, Giant plant response rating (giant foxtail [8]; [20]): 10
Plant response rating, Foxtail, Giant (giant foxtail [8]; [21]): 0
Foxtail, Giant plant response rating (giant foxtail [8]; [22]): 30
Plant response rating (0 to 100 scale), Lambsquarters (lambsquarters; [19]): 0
Lambsquarters plant response rating (lambsquarters; [20]): 30
Lambsquarters plant response rating (lambsquarters; [22]): 70
Plant response rating (0 to 100 scale), Morningglory (morningglory [9]; [19]): 0
Morningglory plant response rating (morningglory [9]; [20]): 0
Plant response rating, Morningglory (morningglory [9]; [21]): 0
Morningglory plant response rating (morningglory [9]; [22]): 20
Plant response rating (0 to 100 scale), Pigweed (pigweed; [19]): 0
Pigweed plant response rating (pigweed; [20]): 50
Plant response rating, Pigweed (pigweed; [21]): 0
Pigweed plant response rating (pigweed; [22]): 80
Plant response rating (0 to 100 scale), Rice (rice [10]; 125 g ai/ha, 0 is no effect, 100 is complete control): 0
Plant response rating, Rice (rice [10]; 500 g ai/ha, visual rating, 0 = no effect, 100 = complete control): 0
Plant response rating (0 to 100 scale), Velvetleaf (velvetleaf [11]; [19]): 0
Velvetleaf plant response rating (velvetleaf [11]; [20]): 10
Plant response rating, Velvetleaf (velvetleaf [11]; [21]): 0
Velvetleaf plant response rating (velvetleaf [11]; [22]): 30
Blackgrass plant response rating (blackgrass; [20]): 20
Blackgrass plant response rating (blackgrass; [22]): 20
Wheat plant response rating (wheat; [20]): 20
Wheat plant response rating (wheat; [22]): 30
Oat, Wild plant response rating (wild oat; [20]): 20
Oat, Wild plant response rating (wild oat; [22]): 30
Rice plant response rating (rice [12]): 0
Sedge, Umbrella plant response rating [13]: 0
Ducksalad plant response rating (ducksalad): 0
Barnyardgrass plant response rating (barnyardgrass [14]): 0
